From patent US20210032257A1, “(E)-1-(4-(DIMETHYLAMINO)BUT-2-ENOYL)PYRROLIDIN-3-YL 4-((3-ISOPROPYL-5-METHYLPYRAZOLO[1,5-A]PYRIMIDIN-7-YL)AMINO)PIPERIDINE-1-CARBOXYLATE FOR INHIBITING CDK7” (Eli Lilly and Company, priority 2017, published 2021) come the findings set out here.

One experiment concerns the target CDK9/cyclinT1 (Homo sapiens, UniProt P50750). Nature of the experiment: Assay for inhibition of CDK9/CyclinT1 kinase activity (radiolabel filter binding).
In another experiment the test system is cMyc in HCT116 cells. The experiment is described as follows: cMyc cell based Acumen assay. Particulars: Homo sapiens, HCT-116, 4 hours, read-out: Relative IC50 for cMyc.
The target of the next experiment is CDK7/CyclinH/Mat1 (Homo sapiens, UniProt P50613). Nature of the experiment: Biochemical assay for inhibition of CDK7/CyclinH/MAT1 (radiolabel filter binding).
CDK7/CyclinH/Mat1, sequence (P50613 whole entry, the tested form may be a part): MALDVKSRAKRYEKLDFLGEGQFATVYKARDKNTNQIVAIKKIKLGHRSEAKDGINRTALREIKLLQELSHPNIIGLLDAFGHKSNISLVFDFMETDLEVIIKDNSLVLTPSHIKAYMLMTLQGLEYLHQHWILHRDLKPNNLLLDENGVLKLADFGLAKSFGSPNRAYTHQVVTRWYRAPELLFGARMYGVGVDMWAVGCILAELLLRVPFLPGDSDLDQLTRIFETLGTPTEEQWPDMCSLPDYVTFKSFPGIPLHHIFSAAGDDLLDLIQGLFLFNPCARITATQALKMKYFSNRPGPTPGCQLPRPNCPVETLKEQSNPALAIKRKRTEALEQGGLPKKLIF
CDK7/CyclinH/Mat1, sequence (P51946 whole entry partner, the tested form may be a part): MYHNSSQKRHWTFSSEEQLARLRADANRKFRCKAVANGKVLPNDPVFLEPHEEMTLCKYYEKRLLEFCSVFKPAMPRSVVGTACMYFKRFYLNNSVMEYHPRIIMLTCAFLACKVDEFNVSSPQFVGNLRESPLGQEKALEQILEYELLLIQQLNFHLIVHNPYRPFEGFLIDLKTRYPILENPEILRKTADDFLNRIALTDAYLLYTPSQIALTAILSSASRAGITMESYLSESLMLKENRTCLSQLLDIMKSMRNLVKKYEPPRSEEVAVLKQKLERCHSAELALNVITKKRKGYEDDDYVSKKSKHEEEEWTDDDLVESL
CDK7/CyclinH/Mat1, sequence (P51948 whole entry partner, the tested form may be a part): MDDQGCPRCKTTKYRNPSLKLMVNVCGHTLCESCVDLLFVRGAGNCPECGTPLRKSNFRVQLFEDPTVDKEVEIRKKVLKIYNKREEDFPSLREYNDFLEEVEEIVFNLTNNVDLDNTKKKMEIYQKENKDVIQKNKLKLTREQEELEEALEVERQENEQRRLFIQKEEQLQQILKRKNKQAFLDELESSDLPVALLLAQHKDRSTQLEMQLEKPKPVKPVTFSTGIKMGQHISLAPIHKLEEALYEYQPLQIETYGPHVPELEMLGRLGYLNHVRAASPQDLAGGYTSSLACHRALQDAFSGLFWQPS
In experiment [1] the test system is phospho-carboxyl terminal domain (Ser5) in HCT116 cells. Nature of the experiment: p-CTD (S5) cell based Acumen assay. Particulars: Homo sapiens, HCT-116, 4 hours, read-out: Relative IC50 for pCTD Ser5. The method, then: HCT116 cells (ATCC CCL-247) are cultured in McCoy's 5A Medium Modified media supplemented with 10% FBS, 1% NaPyr and 1% Pen/Strep and plated (prior to becoming 70% confluent) in 96-well flat-bottom plates at a density of 5,000 cells per well in 100 μL volume. The cells are incubated overnight in a cell culture incubator (5% CO2, 95% Relative Humidity (RH) and 37° C.) and allowed to attach to the plate. The following morning, the cells are dosed with compounds. Compound inhibitors are solubilized at 60 μM in culture medium containing 0.6% DMSO. Subsequently compound serial dilutions (1:3) are prepared over a 60 μM to 0.003 μM range. […]
The following day cells are washed three times with PBS (100 μL/well) and incubated with 50 μL/well of secondary antibody (1:2000 dilution, Goat anti-rabbit IgM ALEXA FLUOR™ 488) in PBS for 1 hour at room temperature. […] Plates are analyzed on Acumen on FL2 (mean intensity), and FL3 (total intensity). Fluorescence plates are scanned with ACUMEN EXPLORER™ [Laser-scanning fluorescence microplate cytometer manufactured by TTP LABTECH LTD] to measure anti-phospho-carboxyl terminal domain at Serine 5 (pCTD). […] The IC50 is determined by curve fitting to a four parameter logistic for each output using GENE DATA™.

Experiment [2] deals with phospho-carboxyl terminal domain (Ser2) in HCT116 cells. Nature of the experiment: p-CTD (S2) cell based Acumen assay. Particulars: Homo sapiens, HCT-116, 4 hours, read-out: relative IC50 for phosphoCTD (S2). As for the experimental part: HCT116 cells (ATCC CCL-247) are cultured in McCoy's 5A Medium Modified media supplemented with 10% FBS, 1% NaPyr and 1% Pen/Strep and plated (prior to becoming 70% confluent) in 96-well flat-bottom plates at a density of 5,000 cells per well in 100 μL volume. The cells are then incubated overnight in a cell culture incubator (5% CO2, 95% Relative Humidity (RH) and 37° C.) and allowed to attach to the plate. The following morning the cells are dosed with compounds. Compound inhibitors are first solubilized at 60 μM in culture medium containing 0.6% DMSO. Subsequently compound serial dilutions (1:3) are prepared over a […] to […] range. […]
The following day cells are washed three times with PBS (100 μL/well) and incubated with 50 μL/well of secondary antibody (1:2000 dilution, Goat anti-rabbit IgM ALEXA FLUOR™ 488) in PBS for 1 hour at RT. […] Plates are analyzed on Acumen on FL2 (mean intensity), and FL3 (total intensity). Fluorescence plates are scanned with ACUMEN EXPLORER™ [Laser-scanning fluorescence microplate cytometer manufactured by TTP LABTECH LTD] to measure anti-phospho-carboxyl terminal domain at Serine 2 (pCTD). […]
The IC50 is determined by curve fitting to a four parameter logistic for each output using GENE DATA™.

CDK9/cyclinT1, sequence (P50750 whole entry): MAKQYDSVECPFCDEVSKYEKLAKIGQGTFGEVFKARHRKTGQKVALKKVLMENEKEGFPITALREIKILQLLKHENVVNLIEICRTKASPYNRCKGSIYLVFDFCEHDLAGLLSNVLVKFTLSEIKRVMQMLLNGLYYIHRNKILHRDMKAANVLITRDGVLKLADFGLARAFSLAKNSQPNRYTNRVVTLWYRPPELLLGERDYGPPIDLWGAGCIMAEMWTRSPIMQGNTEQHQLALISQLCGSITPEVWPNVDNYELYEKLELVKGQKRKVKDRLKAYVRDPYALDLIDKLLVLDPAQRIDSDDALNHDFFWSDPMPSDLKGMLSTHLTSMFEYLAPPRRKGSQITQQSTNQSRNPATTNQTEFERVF
CDK9/cyclinT1, sequence (O60563 whole entry partner): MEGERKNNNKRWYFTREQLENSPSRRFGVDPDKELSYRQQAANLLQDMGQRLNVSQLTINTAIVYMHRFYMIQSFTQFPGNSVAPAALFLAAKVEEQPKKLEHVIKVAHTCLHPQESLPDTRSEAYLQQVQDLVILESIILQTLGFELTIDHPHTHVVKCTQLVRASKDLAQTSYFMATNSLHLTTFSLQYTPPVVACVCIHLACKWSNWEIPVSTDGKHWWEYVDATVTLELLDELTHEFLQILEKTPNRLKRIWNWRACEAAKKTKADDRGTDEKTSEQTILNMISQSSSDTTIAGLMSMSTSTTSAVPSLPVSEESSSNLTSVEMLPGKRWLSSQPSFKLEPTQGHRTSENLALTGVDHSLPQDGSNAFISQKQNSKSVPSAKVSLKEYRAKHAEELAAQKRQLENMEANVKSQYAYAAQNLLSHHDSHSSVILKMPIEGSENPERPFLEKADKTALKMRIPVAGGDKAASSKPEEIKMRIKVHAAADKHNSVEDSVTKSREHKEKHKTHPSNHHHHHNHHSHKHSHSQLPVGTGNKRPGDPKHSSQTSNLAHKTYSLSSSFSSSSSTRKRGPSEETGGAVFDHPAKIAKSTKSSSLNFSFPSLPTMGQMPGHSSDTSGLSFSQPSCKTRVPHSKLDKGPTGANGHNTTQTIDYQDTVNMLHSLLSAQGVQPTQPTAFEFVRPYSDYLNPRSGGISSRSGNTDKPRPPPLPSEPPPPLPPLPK
Protocol for CDK7/CyclinH/Mat1: The purpose of this assay is to measure the ability of a compound of the invention to inhibit CDK7/CyclinH/Mat1 complex kinase activity.
The IC50 activity of the inhibitor is determined using radiolabel filter binding (FB) assays using the purified human recombinant enzyme in the presence of ATP//[3^3P]ATP and peptide substrate. The ATP concentrations chosen are at or near the enzyme Km for ATP.
Reactions are carried out in 96 well polystyrene plates in a final volume of 25 μL per well. 5 μL of test compound in 20% DMSO, 10 μL of substrate solution (ATP/33PATP and CDK7/9 tide) and 10 μL of enzyme solution are mixed. […] The enzyme solution is prepared for a final concentration of 1 nM CDK7/CyclinH/Mat1 enzyme [Proqinase 0366-0360-4 Lot 002)] diluted in kinase buffer. Test compounds are serially diluted 1:3 in 20% DMSO to create a 10 point curve at a starting concentration of 20 μM. 20% DMSO buffer alone without test compound is employed as high control (full activity in the absence of any inhibitor), 500 mM EDTA is used to determine the level of background in the absence of enzyme activity (low control). After mixing 5 μL of compounds with 10 μL of enzyme solution the plate is incubated for 0 or 180 minutes at 22° C. After that time the reaction is initiated by the addition of 10 μL substrate solution and incubated for 50 minutes at 22° C. The reaction is terminated by the addition of 80 μL of cold 10% ortophosphoric solution. The Filter Plates (opaque, non-sterile filter plates) are prewashed with 10 μL of 10% orthophosphoric solution to each well. 100 μL of the mixture are transferred to a phosphocellulose filter and incubated at room temperature for 45 minutes. Filter plates are washed with 200 μL 0.5% orthophosphoric acid 3 times on a filter plate processor. Incorporation of 33Pi (counting of “cpm”) is determined by adding 80 μL of MICROSCINT™ to each well and read on a counter after an hour. Data is processed through a [sequence] […] ® tool. Data are analyzed using a 4-parameter nonlinear logistic equation (four-parameter logistic concentration-response curve): Y=bot+[(top-bot)/1+(x/IC50)slope] where Y=% inhibition, X=concentration yielding y % inhibition, Bottom=minimum value of y attained by curve, Top=maximum value of y attained by curve and Slope=steepness of curve at IC50. % Inh=[(median Max−x/median Max−median Min)]·100
IC50: concentration of compound that reduces a given response (ligand binding, enzyme response) by 50%.
Protocol for CDK9/cyclinT1: The IC50 determination for CDK7 and CDK9 are determined as follows.
The IC50 activity of the inhibitor is determined using radiolabel filter binding (FB) assays using the purified human recombinant enzyme in the presence of ATP and peptide substrate. The ATP concentrations chosen are at or near the enzyme Km for ATP. Reactions are carried out in 96 well polystyrene plates in a final volume of 25 μL per well. 5 μL of test compound in 20% DMSO, 10 μL of substrate solution (ATP//[^33P]ATP and CDK7/9 tide) and 10 μL of enzyme solution are mixed. […] The enzyme solution is prepared for a final concentration of 7.5 nM CDK9/cyclinT1 enzyme [Proqinase 0371-0345-1 (Lot 004)] diluted in kinase buffer. Test compounds are serially diluted 1:3 in 20% DMSO to create a 10 point curve at a starting concentration of 2 μM. 20% DMSO buffer alone without test compound is employed as high control (full activity in the absence of any inhibitor), 500 mM EDTA is used to determine the level of background in the absence of enzyme activity (low control). After mixing 5 μL of compounds with 10 μL of enzyme solution the plate is incubated for 0 or 180 minutes at 22° C. After that time the reaction is initiated by the addition of 10 μL substrate solution and incubated for 60 minutes at 22° C. […] 80 μL of MICROSCINT™ is added to each well and read on a scintillation counter after an hour. […]

Broadly, the IC50 is the concentration that gives 50% inhibition. `Cc1cc(NC2CCN(C(=O)O[C@@H]3CCN(C(=O)/C=C/CN(C)C)C3)CC2)n2ncc(C(C)C)c2n1` [Example 3, [(3R)-1-[(E)-4-(dimethylamino)but-2-enoyl]pyrrolidin-3-yl] 4-[(3-isopropyl-5-methyl-pyrazolo[1,5-a]pyrimidin-7-yl)amino]piperidine-1-carboxylate]: the IC50 was determined as 2450 nM on CDK9/cyclinT1; 57.3 nM with cMyc in HCT116 cells; 5.06 nM at CDK7/CyclinH/Mat1 (IC50 in CDK7, 3 hours of preincubation of CDK7 enzyme); 48.7 nM on CDK7/CyclinH/Mat1 (IC50 in CDK7, without preincubation); 198 nM in experiment [1]; 3520 nM in experiment [2].
